Patent US9115137B2, “2,3,4,5-tetrahydro-1H-pyrido[4,3-B]indole compounds and methods of use thereof” (priority 2008, dated 2015)

Tests used:
[1] = molecular target: T1, human recombinant adrenergic α1D receptor (Homo sapiens, UniProt P25100); assay: Adrenergic α1D radioligand binding ([3H]Prozosin); conditions: compound at 1 μM; HEK-293 cells; read-out: Adrenergic (1 μM) α1D, percent inhibition of specific binding
T1 construct: expressed in transfected cells; host or cells: HEK-293 cells
T1 sequence (P25100 1-572): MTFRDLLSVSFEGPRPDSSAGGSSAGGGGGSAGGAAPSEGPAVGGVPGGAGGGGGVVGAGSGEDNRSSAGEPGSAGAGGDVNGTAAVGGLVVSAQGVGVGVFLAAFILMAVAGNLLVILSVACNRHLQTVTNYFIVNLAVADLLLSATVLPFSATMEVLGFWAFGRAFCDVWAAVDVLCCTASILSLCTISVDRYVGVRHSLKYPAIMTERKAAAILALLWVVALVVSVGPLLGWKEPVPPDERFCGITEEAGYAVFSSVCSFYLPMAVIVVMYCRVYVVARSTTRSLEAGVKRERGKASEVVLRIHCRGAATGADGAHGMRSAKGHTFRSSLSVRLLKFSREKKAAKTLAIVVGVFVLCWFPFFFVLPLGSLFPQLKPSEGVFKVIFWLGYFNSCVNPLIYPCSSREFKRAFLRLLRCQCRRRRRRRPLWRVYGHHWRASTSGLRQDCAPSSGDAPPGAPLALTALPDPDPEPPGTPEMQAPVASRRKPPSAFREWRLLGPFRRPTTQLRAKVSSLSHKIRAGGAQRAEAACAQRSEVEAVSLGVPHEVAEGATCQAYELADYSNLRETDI
Summary of the method: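 Membranes of HEK-293 cells expressing human α1D receptor incubated with 0.6 nM [3H]prazosin and compound (1 μM or lower, 1% DMSO) for 60 min at 25° C in 50 mM Tris-HCl pH 7.4. Non-specific binding defined with 10 μM phentolamine; filtration read-out given as percent inhibition of specific binding.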

[2] = molecular target: T2, human recombinant histamine H1 receptor (Homo sapiens, UniProt P35367); assay: Histamine H1 radioligand binding ([3H]Pyrilamine); conditions: compound at 1 μM; CHO cells; read-out: Histamine Binding (1 μM) H1, percent inhibition of specific binding
T2 construct: expressed in transfected cells; host or cells: CHO cells
T2 sequence (P35367 whole entry): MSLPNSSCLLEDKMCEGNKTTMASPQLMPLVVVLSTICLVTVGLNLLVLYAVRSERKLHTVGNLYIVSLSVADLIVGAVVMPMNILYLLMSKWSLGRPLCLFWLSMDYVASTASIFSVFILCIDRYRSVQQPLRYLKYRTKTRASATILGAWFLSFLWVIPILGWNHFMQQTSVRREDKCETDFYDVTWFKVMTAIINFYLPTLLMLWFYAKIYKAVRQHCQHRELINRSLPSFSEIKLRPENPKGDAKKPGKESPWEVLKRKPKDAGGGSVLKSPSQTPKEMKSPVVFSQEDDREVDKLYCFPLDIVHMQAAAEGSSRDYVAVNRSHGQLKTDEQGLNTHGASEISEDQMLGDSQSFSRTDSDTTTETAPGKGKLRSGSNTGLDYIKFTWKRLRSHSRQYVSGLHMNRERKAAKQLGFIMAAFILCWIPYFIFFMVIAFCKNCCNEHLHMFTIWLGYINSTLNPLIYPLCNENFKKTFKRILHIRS
Summary of the method: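 Recombinant human H1 receptor expressed in CHO cells, in Tris-HCl pH 7.4 with MgCl2, NaCl and sucrose, incubated with 1.2 nM [3H]pyrilamine for 180 min at 25 °C; non-specific binding defined with 1 μM pyrilamine. Compounds tested at 1 μM in 1% DMSO; filter-bound counts give percent inhibition of specific binding.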

[3] = molecular target: T3, human recombinant histamine H2 receptor (Homo sapiens, UniProt P25021); assay: Histamine H2 radioligand binding ([125I]aminopotentidine); conditions: compound at 1 μM; CHO K1 cells; read-out: Histamine Binding (1 μM) H2, percent inhibition of specific binding
T3 construct: expressed in transfected cells; host or cells: CHO-K1 cells
T3 sequence (P25021 whole entry): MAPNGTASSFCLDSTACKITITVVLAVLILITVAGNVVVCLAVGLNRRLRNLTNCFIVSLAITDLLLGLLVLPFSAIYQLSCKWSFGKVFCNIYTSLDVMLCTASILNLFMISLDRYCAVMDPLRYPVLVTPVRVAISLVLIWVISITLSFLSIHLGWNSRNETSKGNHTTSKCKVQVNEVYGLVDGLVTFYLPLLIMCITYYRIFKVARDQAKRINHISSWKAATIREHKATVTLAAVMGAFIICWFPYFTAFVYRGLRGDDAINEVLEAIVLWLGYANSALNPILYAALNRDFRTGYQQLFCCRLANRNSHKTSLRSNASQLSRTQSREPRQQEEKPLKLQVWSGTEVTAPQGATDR
Summary of the method: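 CHO-K1 membranes expressing the receptor were incubated in 50 mM phosphate buffer pH 7.4 with 0.1 nM [125I]aminopotentidine for 120 minutes at 25° C., with nonspecific binding defined by 3 μM tiotidine. Compounds were tested at 1 μM (1% DMSO); bound radioligand was counted after filtration, values given as percent inhibition of specific binding.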

[4] = molecular target: T4, human recombinant serotonin (5-Hydroxytryptamine) 5-HT2C receptor (Homo sapiens, UniProt P28335); assay: Serotonin 5-HT2C radioligand binding ([3H]Mesulergine); conditions: compound at 1 μM; CHO-K1 cells; read-out: Serotonin (1 μM) 5-HT2C, percent inhibition of specific binding
T4 construct: expressed in transfected cells; host or cells: CHO-K1 cells
T4 sequence (P28335 33-458): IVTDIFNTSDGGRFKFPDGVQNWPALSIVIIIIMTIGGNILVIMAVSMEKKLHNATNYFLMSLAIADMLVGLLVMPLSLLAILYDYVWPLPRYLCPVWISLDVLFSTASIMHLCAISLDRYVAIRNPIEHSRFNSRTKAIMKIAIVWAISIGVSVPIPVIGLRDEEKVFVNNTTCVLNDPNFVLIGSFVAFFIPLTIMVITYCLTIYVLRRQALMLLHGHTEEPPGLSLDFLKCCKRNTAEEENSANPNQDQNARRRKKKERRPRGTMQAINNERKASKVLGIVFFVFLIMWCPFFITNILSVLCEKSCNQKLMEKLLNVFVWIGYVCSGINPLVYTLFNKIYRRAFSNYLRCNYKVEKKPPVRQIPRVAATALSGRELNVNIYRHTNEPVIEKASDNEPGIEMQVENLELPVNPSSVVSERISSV
Summary of the method: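 Membranes from CHO-K1 cells expressing the human receptor were incubated 60 min at 25 °C with 1 nM [3H]mesulergine in 50 mM Tris-HCl pH 7.4 with ascorbic acid and pargyline; 1 μM mianserin defined non-specific binding.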

Compound	inhibition at 1 µM [1] [%]	inhibition at 1 µM [2] [%]	inhibition at 1 µM [3] [%]	inhibition at 1 µM [4] [%]
Cc1ccc2c(c1)c1c(n2CCNC(=O)c2ccncc2)CCN(C)C1 [Compound 50, N-(2-(1,2,3,4-tetrahydro-2,8-dimethylpyrido[4,3-b]indol-5-yl)ethyl)isonicotinamide]	37	47	9	35
Cc1ccc2c(c1)c1c(n2CC(=O)Nc2ccc(F)cc2)CCN(C)C1 [Compound 51, N-(4-fluorophenyl)-2-(1,2,3,4-tetrahydro-2,8-dimethylpyrido[4,3-b]indol-5-yl)acetamide]	29	85	8	70
CCCCOC(=O)Cn1c2c(c3cc(Cl)ccc31)CN(C)CC2 [Compound 52, butyl 2-(8-chloro-1,2,3,4-tetrahydro-2-methylpyrido[4,3-b]indol-5-yl)acetate]	58	98	23	85
Cc1ccc2c(c1)c1c(n2CCC(=O)NC(C)C)CCN(C)C1 [Compound 53]	62	51	12	51
Cc1ccc2c(c1)c1c(n2CCC(=O)NCc2ccccc2)CCN(C)C1 [Compound 59, N-benzyl-3-(1,2,3,4-tetrahydro-2,8-dimethylpyrido[4,3-b]indol-5-yl)propanamide]	56	60	5	72
CN1CCc2c(c3cc(Cl)ccc3n2CC(=O)NC2CCCCC2)C1 [Compound 60, 2-(8-chloro-1,2,3,4-tetrahydro-2-methylpyrido[4,3-b]indol-5-yl)-N-cyclohexylacetamide]	22	50	3	35
Cc1ccc2c(c1)c1c(n2CCNC(=O)C(C)C)CCN(C)C1 [Compound 61, N-(2-(1,2,3,4-tetrahydro-2,8-dimethylpyrido[4,3-b]indol-5-yl)ethyl)isobutyramide]	28	32	13	27
Cc1ccc2c(c1)c1c(n2CCNC(=O)C2CCCCC2)CCN(C)C1 [Compound 62, N-(2-(1,2,3,4-tetrahydro-2,8-dimethylpyrido[4,3-b]indol-5-yl)ethyl)cyclohexanecarboxamide]	64	63	39	54
Cc1ccc2c(c1)c1c(n2CCNC(=O)c2ccc(F)cc2Cl)CCN(C)C1 [Compound 63, 2-chloro-4-fluoro-N-(2-(1,2,3,4-tetrahydro-2,8-dimethylpyrido[4,3-b]indol-5-yl)ethyl)benzamide]	56	86	35	72
Cc1ccc2c(c1)c1c(n2CC(N)=O)CCN(C)C1 [Compound 64, 2-(1,2,3,4-tetrahydro-2,8-dimethylpyrido[4,3-b]indol-5-yl)acetamide]	20	62	-3	45
Cc1ccc2c(c1)c1c(n2CCNC(=O)C2CCNCC2)CCN(C)C1 [Compound 65, N-(2-(1,2,3,4-tetrahydro-2,8-dimethylpyrido[4,3-b]indol-5-yl)ethyl)piperidine-4-carboxamide]	11	34	-7	24
Cc1ccc2c(c1)c1c(n2CCNC(=O)c2ccc(F)cc2)CCN(C)C1 [Compound 66, 4-fluoro-N-(2-(1,2,3,4-tetrahydro-2,8-dimethylpyrido[4,3-b]indol-5-yl)ethyl)benzamide]	76	66	49	93
CN1CCc2c(c3cc(Cl)ccc3n2CCC(N)=O)C1 [Compound 67, 3-(8-chloro-1,2,3,4-tetrahydro-2-methylpyrido[4,3-b]indol-5-yl)propanamide]	32	70	-6	65
Cc1ccc2c(c1)c1c(n2CCNC(=O)C2CCCC2)CCN(C)C1 [Compound 68, N-(2-(1,2,3,4-tetrahydro-2,8-dimethylpyrido[4,3-b]indol-5-yl)ethyl)cyclopentanecarboxamide]	66	58	31	40
Cc1ccc2c(c1)c1c(n2CCNC(=O)c2ccncc2C)CCN(C)C1 [Compound 69, N-(2-(1,2,3,4-tetrahydro-2,8-dimethylpyrido[4,3-b]indol-5-yl)ethyl)-3-methylpyridine-4-carboxamide]	30	88	14	24
Cc1ccc2c(c1)c1c(n2C2CCCCC2O)CCN(C)C1 (stereo not shown) [Compound 73, 2-(1,2,3,4-tetrahydro-2,8-dimethylpyrido[4,3-b]indol-5-yl)cyclohexanol]	6	2	8	52
